From patent US8426469B2, “Crystalline leukotriene B4” (LTB4 Sweden AB, priority 2006, dated 2013)
“Also recorded” adds a separate entry of the source.

Experiments:
[1] = stability of leukotriene B4 as a function of pH; format: physicochemical; details: alkaline pH versus neutral or acidic pH
From the text: Accordingly, in a preferred embodiment, the composition according to the present invention comprises an alkaline reacting carrier. The expression “alkaline reacting carrier”, in the context of the present invention, is intended to include an otherwise inert, pharmaceutically acceptable substance (or substances), which creates an alkaline “micro-pH” between 8.2 and 14, especially between 8.5 and 12.5, such as between 8.5 and 11.5, most preferably between 9.5 and 11.5, such as about 9.5, 9.6, 9.7, 9.8, 9.9, 10.0, 10.1, 10.2, 10.3, 10.4, 10.5, 10.6, 10.7, 10.8, 10.9, 11.0, 11.1, 11.2, 11.3, 11.4, or 11.5, around each LTB4 particle when water is adsorbed to the particles of the mixture or when water is added in small amounts to the mixture. In another preferred embodiment, the alkaline “micro-pH” ranges between 8.0 and 9.0, between 8.5 and 9.5, between 9.0 and 10.0, or between 10.0 and 11.5. […]

[2] = solubility of LTB4 in various solvents; format: physicochemical; details: Table 1; the value is the solvent
From the text: Table 1 below summarizes the solubility of LTB4 in various solvents.

[3] = pH 7.0-7.6, stored at 2° C. to 25° C. (and above 25° C.); cited from earlier work

## CCCCC/C=C\C[C@@H](O)/C=C/C=C/C=C\[C@@H](O)CCCC(=O)O [LTB4, 5S,12R-dihydroxy-6,8,10,14(Z,E,E,Z)-eicosatetraenoic acid]
[1]
  stability depending on pH: more stable at alkaline pH than at neutral or acidic pH
[2]
  Slightly soluble or insoluble (solvent in which LTB4 is slightly soluble or insoluble; anti-solvent): Toluene; also recorded: Water; also recorded: Heptane
[3]
  stability of isotonic aqueous solution: stable for only short periods of time (weeks to months)
